The record followed here is paper PMC9598656, “In Vitro Activity of Robenidine Analogues NCL259 and NCL265 against Gram-Negative Pathogens” (Antibiotics, 2022).

Assay [1] has as its system Wild-type (E. coli BW 25113). In words: MIC, efflux-pump wild-type. The assay is classed as cell-based. To be noted: Escherichia coli, read-out: MIC Values. As for the experimental part:
A variety of Gram-negative reference strains (E. coli ATCC 25922, E. coli ATCC 10763, P. aeruginosa PAO1, P. aeruginosa ATCC 27853, A. baumannii ATCC 12457, A. baumannii ATCC 19606, K. pneumoniae ATCC 4352 and K. pneumoniae ATCC 33495) were used for initial screening and combination testing with PMB. The organisms were speciated using biochemical testing and MALDI-TOF mass spectrometry (Bruker, Preston, VIC, Australia). Activity testing of NCL259 and NCL265 was also carried out on 51 extraintestinal clinical E. coli isolates from companion animals, and 83 porcine and bovine enterotoxigenic E. coli (ETEC) isolates from the Australian Centre for Antimicrobial Resistance Ecology collection. E. coli wild-type (BW 25113) and its mutant BW 25113∆AcrB, in which the inner membrane component AcrB of the tripartite multidrug efflux system AcrA/AcrB/TolC has been deleted, were obtained from the bacterial collection held at Health and Biomedical Innovation, Clinical and Health Sciences, The University of South Australia. All isolates were cultured on sheep blood agar (SBA) plates at 37 °C for 18 h before being subcultured into Luria Bertaini (LB) (Oxoid, Scoresby, VIC, Australia) broth and grown to A600nm = 0.5 (equivalent to approx. 1.5 × 10^8 colony-forming units (CFU)/mL).
MICs for NCL259 and NCL265 (serial two-fold dilutions commencing at 256 µg/mL) were determined (in duplicate) in round bottom 96–well microtitre trays (Sarstedt 82.1582.001), using the broth micro-dilution method recommended by the Clinical and Laboratory Standards Institute (CLSI). We have shown previously that robenidine can chelate calcium ions from cation-adjusted Mueller-Hinton broth, which causes the loss of activity of robenidine. Therefore, LB broth was used in this study. […] The MIC for ampicillin against each isolate was determined for each test to serve as an internal quality control. The MICs of isolates were determined by visual reading and using an EnSpire Multimode Plate Reader 2300 at A600nm.

Assay [2] relates to Vero (normal adult African green monkey cell line). The assay can be described thus: In vitro cytotoxicity, WST-1. The assay is classed as cell-based. To be noted: Chlorocebus sabaeus, 24 h. An excerpt: (§1) Potential toxicity of NCL259 and NCL265 to mammalian cells relative to the parent compound (NCL812) was examined using Caco-2 (human colorectal adenocarcinoma cell line), HEL 299 (non-cancerous human lung fibroblast cell line), Hep G2 (human hepatocellular carcinoma cell line), MCF-7 (human mammary gland adenocarcinoma cell line), MDBK (normal Madin–Darby bovine kidney cell line) and Vero (normal adult African green monkey cell line), essentially as described previously. Toxicity to the cell lines was performed using serial two-fold dilutions of each compound from 128 to 1 μg/mL in duplicates in flat bottom 96 well tissue culture trays (Sarstedt 83.3924) containing approximately 2 × 10^4 cells per well in antibiotic-free Dulbecco’s Modified Eagle’s Medium (DMEM; Gibco Cat No: 12430; Thermo Fisher Scientific, Scoresby, VIC, Australia) consisting of 10% (v/v) fetal bovine serum at 37 °C, 5% CO2 for 24 h. Duplicate wells containing ampicillin at 128 to 1 μg/mL were used as controls. Thereafter, 10% (v/v) of the WST-1 cell proliferation assay reagent (Cat No: 05015944001; Roche Life Science, North Ryde, NSW, Australia) was added to each well, the trays were further incubated at 37 °C, 5% CO2 for 1 h and absorbance read at A450nm on a Multiskan Ascent 354 Spectrophotometer (Labsystems, Lilydale, VIC, Australia). The inhibitory concentration of each compound was determined as the half maximal inhibitory concentration (IC50) at A450nm.
(Tetrazolium dyes change colour on reduction, which living cells bring about.)

Assay [3] has as its system HEL 299 (non-cancerous human lung fibroblast cell line). In words: In vitro cytotoxicity, WST-1. It is filed as cell-based. To be noted: HEL 299, 24 h.
Source text: as §1

Assay [4] deals with MCF-7 (human mammary gland adenocarcinoma cell line). In words: In vitro cytotoxicity, WST-1. It is filed as cell-based. To be noted: MCF7, 24 h.
Source text: as §1

The subject of another assay is K. pneumoniae ATCC 33495. In words: Checkerboard assay with PMB. The assay is classed as cell-based, Klebsiella pneumoniae. To be noted: for MIC, Combination: NCL259 or NCL265 with PMB; for Combination Effect / FICI: with PMB. On the procedure:
MICs of NCL259 or NCL265 in the presence of the efflux pump inhibitor, PAβN were determined using a checkerboard assay. […] Briefly, a two-fold serial dilution of each antimicrobial solution was prepared in its appropriate solvent (e.g., DMSO for robenidine analogues and Milli-Q water for PAβN), and 1 μL of each dilution was added from wells 12 to 3 (12.8–0.25 μg/mL for robenidine analogues, and 32–2 μg/mL for PAβN). Thereafter, 89 μL of LB broth was added to each well followed by the addition of 10 μL of bacterial suspension (1–5 × 10^6 CFU/mL) to each well. In this manner, the final concentration of DMSO in each well was 1%. The plate was subsequently incubated at 37 °C for 24 h. The resazurin assay was used for assessment of drug susceptibility of NCL259 and NCL265 (Supplementary Table S1–S6). The same method was also used to test the MICs of NCL259 or NCL265 in the presence of PMB against a range of Gram-negative reference strains (E. coli ATCC 25922, E. coli ATCC 10763, P. aeruginosa PAO1, P. aeruginosa ATCC 27853, A. baumannii ATCC 12457, A. baumannii ATCC 19606, K. pneumoniae ATCC 4352 and K. pneumoniae ATCC 33495). Stock solutions were prepared prior to use (25.6–0.25 mg/mL for robenidine analogues; 12.8–0.25 mg/mL for PMB). The interaction of two antibiotics was calculated as the fractional inhibitory concentration index (FICI) using the following formula:(1) FICI=MICA in combination/MICA alone+MICB in combination/MICB alone where A is NCL259 or NCL265 and B is PAβN or PMB. According to FICI calculations, the interaction between two compounds were interpreted as follows: synergistic (FICI ≤ 0.5); additive or partially synergistic (0.5 < FICI ≤ 1); indifferent (1 < FICI ≤ 4); and antagonistic (FICI > 4), as described previously. The dose reduction index (DRI) was used to describe the difference between the effective doses of NCL259 or NCL265 in combination with PMB or PAβN in comparison to their individual doses, using the following formula:(2) DRI=MICA alone/MICA in combination
Evaluation of DRI is important clinically because it can allow the dose of a potentially toxic drug to be lowered in combination with another compound without reducing the drug’s efficacy. A DRI higher than 1 is viewed as beneficial.

The mark [5] stands for this setting: first of two independent experiments.
The mark [6] stands for this setting: second of two independent experiments.

Molecules are shown by their SMILES. Values after ≈ are worked out from the molar mass of the structure shown.

`[H]/N=C(\N)NN=C(CC1CCCCC1)c1ccc(Cl)cc1` [NCL259, (E)-2-(1-(4-chlorophenyl)-2-cyclohexylethylidene)hydrazine-1-carboximidamide]: the MIC (usually the smallest concentration in the dilution series that meets the test's criterion for growth inhibition) in assay [1] worked out at 64 µg/mL. Also, the IC50 (usually the concentration that gives 50% inhibition) in assay [2] (setting [5]) was 6 µg/mL (≈ 20.5 µM); in assay [2] (setting [6]), 3 µg/mL (≈ 10.2 µM); in assay [3] (setting [5]), less than 2 µg/mL; in assay [3] (setting [6]), less than 2 µg/mL; in assay [4] (setting [5]) it was 3 µg/mL (≈ 10.2 µM); in assay [4] (setting [6]), 6 µg/mL (≈ 20.5 µM). Moreover, the “MIC, Combination” value in the assay on K. pneumoniae ATCC 33495 worked out at 1 µg/mL. Further, the “Dose Reduction Index (DRI) PMB:NCL259” value in the assay on K. pneumoniae ATCC 33495 (PMB + NCL259) is 64. The “Combination Effect” value in the assay on K. pneumoniae ATCC 33495 was “Additivity (additive or partially synergistic, 0.5 < FICI ≤ 1)”. Further, the FICI in the assay on K. pneumoniae ATCC 33495 turned out to be 0.516.

Take `[H]/N=C(\N)NN=C(CCCCCC)c1ccc(Cl)cc1` [NCL265, (E)-2-(1-(4-chlorophenyl)heptylidene)hydrazine-1-carboximidamide]: the MIC in assay [1] was 16 µg/mL. The IC50 is 6 µg/mL (≈ 21.4 µM) in assay [2] (setting [5]); 3 µg/mL (≈ 10.7 µM) in assay [2] (setting [6]); less than 2 µg/mL in assay [3] (setting [5]); less than 2 µg/mL in assay [3] (setting [6]); less than 1 µg/mL in assay [4] (setting [5]); 6 µg/mL (≈ 21.4 µM) in assay [4] (setting [6]). In addition, in the assay on K. pneumoniae ATCC 33495, the “MIC, Combination” value was 2 µg/mL. For the same compound, the “Dose Reduction Index (DRI) PMB:NCL265” value with K. pneumoniae ATCC 33495 (PMB + NCL265) stood at 32. Also, in the assay with K. pneumoniae ATCC 33495, the “Combination Effect” value is reported as “Synergism (synergistic, FICI ≤ 0.5)”. The FICI in the assay with K. pneumoniae ATCC 33495 was determined as 0.281.
